Reference: patent US20250114390A1, “MULTI-ACTIVE TABLET IN THE TREATMENT AND CONTROL OF SEVERE CHRONIC PAIN AND METHOD OF PREPARATION” (LABORATORIOS SILANES S.A. DE C.V., priority 2023, published 2025)
Converted amounts (≈) assume the structure as drawn. Where two headings read alike, the source gives them in different places.

Experiments:
[1] = cited from earlier work
[2] = cited from earlier work; remark: listed apart in the source
healthy subjects = assay: Adverse events in the comparative bioavailability clinical trial; details: single dose
Text: The study was open, longitudinal, prospective, with a 3×6×3 design, with random assignment, single dose, three treatments, three periods and six sequences under fasting conditions, in a healthy Mexican female and male population with a washout time for drug elimination of one week (07 days) between each period.
Due to the COVID-19 health emergency, the 42 research subjects were divided into two hospitalization groups: Group 1 with 22 research subjects and Group 2 with 20 research subjects. After fasting for at least 10 hours, a blood sample was taken at time 0.00 hours, and a dose of celecoxib/pregabalin/vitamin B, 200 mg/150 mg tablets/vitamin B12 500 μg/vitamin B1 100 mg/vitamin B6 50 mg was administered, in a single dose of the test medicament or the reference medicament as monotherapy (celecoxib 200 mg capsule or pregabalin 150 mg capsule) according to prior randomization, orally with 250 ml of water at room temperature. After administration of the corresponding medicament, another 17 samples were taken at the following times: 0.50, 0.75, 1.00, 1.33, 1.66, 2.00, 2.50, 3.00, 3.50, 4.00, 6.00, 8.00, 10.00, 14.00, 24.00, 36.00- and 48.00-hours post-dose.

In the case of Cyanocobalamin, the pH ([1]; 1 g/L at 20° C.) is listed as 6.0, the Solubility [1] is listed as 12000 µg/mL and the pKa [1] is listed as 1.82. The Solubility in acetone ([1]; in words) was “almost insoluble”, the Solubility in alcohol ([1]; in words) was “Soluble” and the Solubility in chloroform ([1]; in words) was “almost insoluble”. For the same molecule, the “Solubility in diethyl ether” value ([1]; in words) was “almost insoluble” and the Solubility in water ([1]; in words) was “slightly soluble”.
In the case of `Cc1ncc(CO)c(CO)c1O` [Pyridoxine], the “Stability (description)” value ([1]; air, light) is given as “stable in air and slowly decomposes with light”, the pKa [1] is given as 9.4 and the Solubility in alcohol ([1]; in words) is given as “slightly soluble”. For the same molecule, the “Solubility in diethyl ether” value ([1]; in words) was “almost insoluble” and the Solubility in water ([1]; in words) was “Easily soluble”.
For `Cc1ncc(C[n+]2csc(CCO)c2C)c(N)n1` [Thiamine], the pKa [1] is given as 15.5, the Solubility in chloroform ([1]; in words) is given as “very slightly soluble” and the “Solubility in diethyl ether” value ([1]; in words) is given as “almost insoluble”. The Solubility in ethanol ([1]; in words) was “slightly soluble”, the “Solubility in hot water” value ([1]; in words) was “Freely soluble” and the Solubility in methanol ([1]; in words) was “slightly soluble”. The Solubility in water ([1]; in words) was “slightly soluble”.
For `Cc1ccc(-c2cc(C(F)(F)F)nn2-c2ccc(S(N)(=O)=O)cc2)cc1` [Celecoxib], the Cmax of celecoxib ([2]; Author: Center for Drug Evaluation, 1999) is given as 600.0 ± 900.00 ng/mL, the ABC0-t of celecoxib ([2]; Author: Laboratorios Silanes) is given as 5593.760 ± 2158.606 ng/mL*h and the Cmax of celecoxib ([2]; Author: Laboratorios Silanes) is given as 602.685 ± 301.48 ng/mL. The ABC0-t of celecoxib ([2]; Author: Lilitkarntrakul, P) was 5157.12 ± 1499.46 ng/mL*h, the Cmax of celecoxib ([2]; Author: Lilitkarntrakul, P) was 686.83 ± 211.35 ng/mL and the ABC0-t of celecoxib ([2]; Author: Paulson, S) was 5994.0 ± 2393.0 ng/mL*h. The Cmax of celecoxib ([2]; Author: Paulson, S) was 806.0 ± 411.0 ng/mL, the ABC0-t of celecoxib ([2]; Author: Sy-Yeuan J) was 7267.48 ± 2077.68 ng/mL*h and the Cmax of celecoxib ([2]; Author: Sy-Yeuan J) was 703.86 ± 329.91 ng/mL. For the same molecule, the Solubility [1] was 3300 µg/mL (≈ 8.65 mM) and the “Solubility (biopharmaceutical classification)” value [1] was “low solubility”.
In the case of `CC(C)C[C@H](CN)CC(=O)O` [Pregabalin], the “Permeability (biopharmaceutical classification)” value ([1]; not told) is given as “high permeability”, the “Adverse events probably related to dosing, total” value (healthy subjects) is given as 16 events and the Events of dizziness (healthy subjects) is given as 13 events. For the same molecule, the Events of headache (healthy subjects) was 1 events, the Events of paresthesia (healthy subjects) was 1 events and the “Events of visual disturbances” value (healthy subjects) was 1 events.
